According to US9629918B2, “Folate receptor alpha binding ligands” (PURDUE RESEARCH FOUNDATION, priority 2012, dated 2017):

Experiments:
FR-α positive KB cells [1] = target: T1, FR-α positive KB cells (Homo sapiens, UniProt P15328); experiment: Flow cytometry analysis of dye conjugate binding to KB cells; assay type: cell-based; conditions: 100 nM, 1 h at 37° C
T1 construct: KB cells, a human nasopharyngeal cancer cell line known to over-express FR-α; host or cells: KB cells
Procedure: (§1) KB cells were allowed to form monolayers in a T75 falcon flask for 48 hours in folate-deficient RPMI 1640 culture medium (FDRPMI). The confluent cells were trypsinized and 1×10^6 cells were transferred into each Eppendorf tube and centrifuged. Spent medium was removed and the pelleted cells were resuspended in fresh medium containing either DMTHF-DyLight™ 680 conjugate (100 nM) or folate-DyLight™ 680 conjugate (100 nM), either in the presence or absence of 100-fold molar excess of free folic acid. After incubation for 1 h at 37° C., the cells were washed 3 times with PBS (0.5 ml) and re-suspended in fresh PBS (0.4 ml). Bound fluorescence was analyzed using a flow cytometer (Cytomics F500; Beckman Coulter).

[2] = target: T2, FR-β positive rat peritoneal macrophages (Rattus norvegicus, UniProt D4A4S5); experiment: Flow cytometry analysis of dye conjugate binding to rat peritoneal macrophages; assay type: cell-based; conditions: 100 nM, 1 h at 37° C
T2 construct: from tissue; host or cells: CD11b+ peritoneal macrophages from Lewis rats
Procedure: as §1
For similar analysis of rat peritoneal macrophages, experimental adjuvant-induced arthritis was induced in Lewis rats according to a previously reported procedure. After 25 days of arthritis induction, the rats were sacrificed by CO2 asphyxiation and peritoneal macrophages were harvested by injecting 60 mL PBS into the peritoneal cavity, and after brief massage of the abdomen, removing the cells using the injection syringe. Peritoneal cells were transferred to Eppendorf tubes, washed and stained as described above, except CD11b+ macrophages that were identified by co-staining with anti-CD 11b-PE (phycoerythrin-labeled antibody to CD11b).

[3] = target: T3, FR-β positive human peripheral blood monocytes (Homo sapiens, UniProt P14207); experiment: Flow cytometry analysis of human peripheral blood monocytes; assay type: cell-based; conditions: 100 nM, 1 h at 37° C
T3 construct: Human peripheral blood monocytes were isolated from whole human blood by a known procedures; from tissue; host or cells: human peripheral blood mononuclear cells from healthy volunteers (CD11b+ monocytes)
Procedure: Human peripheral blood monocytes were isolated from whole human blood by a known procedures. Briefly, whole human blood in anticoagulant was collected from healthy volunteers following informed consent and the mononuclear cells were separated by Ficoll-Paque centrifugation. Cells were re-suspended in Eppendorf tubes in FDRPMI medium containing either DMTHF-Oregon Green™ 488 (100 nM) or folate-Oregon Green™ 488 (100 nM) plus CD 11b Tricolor to label human monocytes. For competition studies 100-fold molar excess of free folic acid was included in the suspension. After incubation for 1 h at 37° C., the cells were washed 3 times with PBS (0.5 ml) and re-suspended in fresh PBS (0.4 ml). Bound fluorescence was analyzed by flow cytometry as described above.

IGROV cells = experiment: In vitro cytotoxicity assay ([^3H]-thymidine incorporation) in IGROV cells; assay type: cell-based, human
Procedure: (§2) KB, RAW or IGROV cells were seeded in 24-well (100,000 cells/well) Falcon plates and allowed to form monolayers overnight. Spent medium was then replaced with fresh medium (0.5 mL) containing increasing concentrations of drug conjugate in the presence or absence of excess folic acid, and cells were incubated for an additional 2 h at 37° C. Cells were washed 3× with fresh medium (0.5 mL) and incubated in fresh medium (0.5 mL) for another 66 h at 37° C. Spent medium in each well was replaced with fresh medium (0.5 mL) containing [^3H]-thymidine ([…]) and the cells were incubated for additional 4 h at 37° C. to allow [^3H]-thymidine incorporation. Cells were then rinsed with medium (3×0.5 mL) and treated with 5% trichloroacetic acid (0.5 mL) for 10 min at room temperature. After replacing trichloroacetic acid with 0.25 N NaOH (0.5 mL), cells were transferred to individual scintillation vials containing Ecolume scintillation cocktail (3.0 mL) and counted in a liquid scintillation counter. IC50 values were calculated by plotting %[^3H]-thymidine incorporation versus log concentration of DMTHF-EC-119-drug conjugate in GraphPad Prism 4.

KB cells = experiment: In vitro cytotoxicity assay ([^3H]-thymidine incorporation) in KB cells; assay type: cell-based, human; conditions: for IC50: 2 h pulse, additional 66 h incubation
Procedure: The in vitro toxicity of DMTHF-EC-119-TubH, compound 6a, (See FIG. 15) was analyzed in KB cells which were pulsed for 2 h with increasing concentrations of DMTHF-EC-119-TubH in the presence or absence of 100 μM folic acid. After washing to remove unbound conjugate, cells were incubated for an additional 66 h in fresh medium before addition of tritiated thymidine.
as §2

RAW 264.7 cells = experiment: In vitro cytotoxicity assay ([^3H]-thymidine incorporation) in RAW 264.7 cells; assay type: cell-based; conditions: murine macrophage cell line
Procedure: as §2

FR-α positive KB cells [4] = target: T1, FR-α positive KB cells; experiment: Binding affinity of ^99mTc conjugates for KB cells (gamma counting)
Procedure: For evaluation of its affinity for FR-α, increasing concentrations of ^99mTc-DMTHF-chelate were incubated with KB cells, a human nasopharyngeal cancer cell line known to over-express FR-α. The level of bound radioactivity was analyzed using a gamma counter.
KB or CHO-β cells (100,000 cells/well in 500 μl) were plated into 24 well Falcon plates and allowed to form adherent monolayers (ca. 70% confluent) overnight. […] Cells were washed with PBS (3×1.0 mL), after which 0.25 M aqueous NaOH (0.5 ml) was added to dissolve the cells. After 10 minutes incubation, 450 μl from each well were transferred polypropylene tubes and counted for radioactivity in a γ counter (Packard Instrument Company). The binding affinity, Kd, was calculated using GraphPad Prism 4 by plotting cell bound radioactivity versus the concentration of radiotracer added.

xenograft KB tumor = experiment: Optical imaging of athymic nude mice bearing KB tumor; assay type: in vivo, mouse; conditions: athymic nude mice with KB tumor, 4 h after administration
Procedure: (§3) Radioimages of murine models of human diseases were acquired with a Kodak Imaging Station coupled to a CCD camera operated with Kodak Molecular Imaging Software v 4.0 (Carestream Molecular Imaging). Abdomens were generally shielded with a lead plate in order to mask radioactivity emitted from the kidneys and bladder. The parameters used for radioimaging were: acquisition time=2 min, f-stop=4, focal plane=7, FOV=200, binning=4. For white light imaging, the parameters were: acquisition time=0.05 s, f-stop=11, focal plane=7, FOV=200, with no binning. For fluorescent imaging, abdomens were shielded with black construction paper to block fluorescence emitted from the kidneys and bladder. The parameters used were: acquisition time=30 s, excitation filter of λ=625 nm, emission filter of λ=700 nm, f-stop=4, focal plane=7, FOV=200, and binning=4.
Animals bearing tumors and/or inflammatory diseases were prepared as described above and injected intraperitoneally with DMTHF-DyLight™ 680 or folate-DyLight™ 680 conjugate (4 nmol in 100 μl of PBS). […] To evaluate accumulation of test compounds in specific organs/tissues, animals were dissected and organs/tissues of interest were excised and selected regions of interest were analyzed in the Kodak Imaging Station.

[5] = system: M109 tumor and DSS induced ulcerative colitis; experiment: Optical imaging of Balb/C mice bearing M109 tumor with DSS induced ulcerative colitis; assay type: in vivo, mouse; conditions: 4 h after administration
Procedure: as §3
Six week old female Balb/c mice were purchased from Harlan laboratories and maintained on a folate deficient diet (Harlan-Teklad, Wis.). After one week of acclimation, the mice were inoculated subcutaneously on the shoulder with 0.1 mL of M109 tumor cell suspension (1×10^6 cells). Subcutaneous tumor growth was monitored daily and on day 10 post tumor inoculation, 4% dextran sulfate sodium was added to their drinking water for 6 days to induce experimental ulcerative colitis. […]

T1 sequence (P15328 25-234): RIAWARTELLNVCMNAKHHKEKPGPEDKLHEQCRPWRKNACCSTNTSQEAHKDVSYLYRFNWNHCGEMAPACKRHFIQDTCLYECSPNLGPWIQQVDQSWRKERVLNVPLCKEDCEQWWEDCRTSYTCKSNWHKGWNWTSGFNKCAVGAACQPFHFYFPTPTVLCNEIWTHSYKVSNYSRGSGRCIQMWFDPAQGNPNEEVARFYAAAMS
T3 sequence (P14207 17-230): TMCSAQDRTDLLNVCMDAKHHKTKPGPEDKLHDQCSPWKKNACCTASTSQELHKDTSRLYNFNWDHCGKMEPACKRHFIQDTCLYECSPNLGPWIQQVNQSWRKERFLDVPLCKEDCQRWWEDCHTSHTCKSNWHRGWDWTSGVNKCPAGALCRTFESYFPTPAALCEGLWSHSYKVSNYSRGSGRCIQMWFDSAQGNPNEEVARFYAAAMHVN
T2 sequence (D4A4S5 21-252): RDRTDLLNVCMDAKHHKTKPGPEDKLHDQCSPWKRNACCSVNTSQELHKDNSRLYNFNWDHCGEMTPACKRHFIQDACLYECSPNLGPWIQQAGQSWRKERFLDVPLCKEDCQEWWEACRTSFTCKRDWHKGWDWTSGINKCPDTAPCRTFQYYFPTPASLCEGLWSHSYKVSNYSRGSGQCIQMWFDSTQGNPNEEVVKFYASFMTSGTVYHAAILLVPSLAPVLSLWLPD

| Compound | binding to FR-α+ human KB cells (FR-α positive KB cells [1]) | binding to CD11b+ rat peritoneal macrophages (FR-β) [2] | shift in the CD11b+ subpopulation of human peripheral blood leucocytes (FR-β) [3] | IC50 (IGROV cells) [nM] | IC50 (KB cells) [nM] | other results |
| --- | --- | --- | --- | --- | --- | --- |
| CN(CC1CNc2nc(N)[nH]c(=O)c2N1C)c1ccc(C(=O)N[C@@H](CCC(=O)O)C(=O)O)cc1 (stereo partly shown) [DMTHF, N^5,N^10-dimethyl-tetrahydrofolic acid] | binds FR-α | little affinity for FR-β | lack of affinity |  |  |  |
| CCC1(O)CC2CN(CCc3c([nH]c4ccccc34)[C@](C(=O)OC)(c3cc4c(cc3OC)N(C)[C@@H]3[C@](O)(C(=O)NNC(=O)OCCSSC[C@H](NC(=O)[C@H](CC(=O)O)NC(=O)[C@H](CC(=O)O)NC(=O)[C@H](CCCNC(=N)N)NC(=O)[C@H](CC(=O)O)NC(=O)CC[C@H](NC(=O)c5ccc(N(C)CC6CNc7nc(N)[nH]c(=O)c7N6C)cc5)C(=O)O)C(=O)O)[C@@H](O)[C@@]5(CC)C=CCN6CC[C@@]43[C@H]65)C2)C1 (stereo partly shown) [DMTHF-EC-119-DAVBH, DMTHF-EC-119-desacetylvinblastine hydrazide] |  |  |  | ~1000 | 42 | cytotoxicity in RAW 264.7 cells (RAW 264.7 cells): did not show any cytotoxicity |
| CCCC(=O)OCN(C(=O)[C@@H](NC(=O)[C@H]1CCCCN1C)C(C)CC)[C@H](C[C@@H](OC(C)=O)c1nc(C(=O)N[C@@H](Cc2ccc(O)cc2)C[C@H](C)C(=O)NNC(=O)OCCSSC[C@H](NC(=O)[C@H](CC(=O)O)NC(=O)[C@H](CC(=O)O)NC(=O)[C@H](CCCNC(=N)N)NC(=O)[C@H](CC(=O)O)NC(=O)CC[C@H](NC(=O)c2ccc(N(C)CC3CNc4nc(N)[nH]c(=O)c4N3C)cc2)C(=O)O)C(=O)O)cs1)C(C)C (stereo partly shown) [DMTHF-EC-119-TubH, DMTHF-EC-119-tubulysin B hydrazide] |  |  |  | ~120000 | 41 | effect of excess folic acid on cytotoxicity (KB cells; 100 μM folic acid): inhibited by excess folic acid |
| Nc1nc2ncc(CNc3ccc(C(=O)N[C@H](CCC(=O)NC[C@H](N)C(=O)N[C@@H](CC(=O)O)C(=O)N[C@@H](CS)C(=O)O)C(=O)O)cc3)nc2c(=O)[nH]1 [EC20, pteroic acid-Glu-DAP-Asp-Cys] |  |  |  |  |  | competition of KB cell binding by free folic acid (FR-α positive KB cells [4]; 100-fold molar excess of free folic acid): competed by excess free folic acid; Kd (FR-α positive KB cells [4]; KB cells, 1 hour at 37° C, cell bound radioactivity, read-out: apparent Kd): 23 nM |
| N^5,N^10-Dimethyl Tetrahydrofolate-DyLight™ 680 [DMTHF-DyLight™ 680] | binds avidly | no measurable affinity |  |  |  | fluorescent uptake, optical imaging (xenograft KB tumor): tumor selective uptake; fluorescent uptake, ROI analysis of organs/tissues [5]: accumulated mainly in tumors |
| N^5,N^10-Dimethyl tetrahydrofolate-Oregon Green™ 488 [DMTHF-Oregon Green] |  |  | did not |  |  |  |
